This note sets out measurements from patent US20220257722A1, “COMPOSITIONS AND METHODS OF TREATING AND PREVENTING SYSTEMIC COMPLICATIONS OF ACUTE ILLNESS” (United States Government As Represented By The Department …, priority 2019, published 2022).

For the test, the system named is rat small intestine. In words: LPS-induced small intestinal FD4 paracellular permeability in vivo (PV and arterial FD4). The note with it: for TDG-induced inhibitory effect on PV FD4 levels: LPS 6 hr + TDG 6 hr; for TDG-induced inhibitory effect on PV FD4 levels / Arterial FD4 levels in LPS 6 hr + TDG 6 hr rats: inhibitor iv at t=-10 min or co-perfused; for Arterial FD4 levels in LPS 6 hr + TDG 6 hr rats: t=90 min. As for the experimental part:
LPS treatment. Animals were treated with LPS (5 mg/kg, ip) once at 9 am. For the acute experiments, the animals were fasted overnight and were treated with LPS 1, 3, or 6 hr before the anesthesia for small intestinal perfusion of FD4 as described herein. For the 24-hr experiments, the animals fed ad libitum were treated with LPS 24 hr before anesthesia induction used for the perfusion study. As a control, saline was injected ip at the corresponding time before the experiments. The animal groups were expressed as control, LPS 1 hr, LPS 3 hr, LPS 6 hr, and LPS 24 hr.
Small intestinal perfusion. The small intestinal perfusion from the duodenum, and portal vein (PV) cannulation were prepared by the modified methods. Under isoflurane anesthesia (2%), the animal was placed […] on a recirculating heating block system (Summit Medical Systems, Bend, Oreg., USA) in order to maintain body temperature at 36-37° C. Prewarmed saline was infused via the right femoral vein at 1.08 ml/h using a Harvard infusion pump (Harvard Apparatus, Holliston, Mass., USA). The abdomen was incised, and the PV was cannulated with a polyethylene (PE)-50 tube attached with 23G needle and fixed by methylacrylate adhesive at the insertion site. The tube was filled with heparinized saline enabling repeated blood sampling. Samples of 0.2 ml PV blood were collected every 15 min, followed by flushing with 0.2 ml heparinized saline. A polyethylene tube (diameter 5 mm) filled with PBS was inserted through the forestomach and tied at 0.5 cm caudal from the pyloric ring. After bolus perfusion of 2-ml phosphate buffer saline (PBS, 10 mM, pH 7.4) into the duodenum from the tube, followed by stabilization for ˜30 min, the time was set as t=0. FD4 (0.1 mM) in 10-ml PBS was slowly perfused at t=0 min for 30 sec. Blood samples were collected into a 0.5-ml tubes containing 1-μl each of EDTA (0.5 M) and the dipeptidyl peptidase-4 (DPP4) inhibitor NVP-728 (1 mM), and immediately centrifuged at 5,000× g for 5 min, after which the plasma was stored on ice or at −80 ° C. until use. At 90 min, after collection of PV samples, arterial blood was taken from abdominal aorta, followed by euthanasia by thoracotomy.
Appearance of FD4 into the PV and arterial plasma was assessed by fluorescence intensity measurement using a multi-mode microplate reader (Synergy-2, BioTek Instruments, Inc., Winooski, VT, USA). Fluorescence intensity in t=0 sample as background was subtracted from the fluorescence values measured in other time point samples. FD4 content was calculated according to the standard curve generated each time of measurement.
Drug treatment for the intestinal perfusion study. The following drugs were administered at the time after LPS treatment: the GLP2R partial agonist/antagonist GLP-2(3-33) (1 mg/kg; 280 nmol/kg, ip) was given immediately after LPS treatment (0 hr after LPS treatment); GLP-2 (380 μg/kg; 100 nmol/kg, ip) was given 6 hr after LPS treatment; a stable GLP-2 analog TDG (50 μg/kg; 13.3 nmol/kg) was ip injected 0, 3, 6, or 12 hr after LPS treatment or iv injected at t=0 min just before the perfusion of FD4 solution (6 or 24 hr after LPS treatment). In acute experiments, TDG was iv injected at t=0 min (6 hr after LPS treatment) with or without the pretreatment of the selective IGF1 receptor (IGF1R) tyrosine kinase inhibitor AEW541 (0.1 mg/kg, iv), the selective EGF receptor (EGFR) tyrosine kinase inhibitor PD153035 (10 μg/kg, iv) or PG97-269 (1 mg/kg, iv) at t=−10 min, or the co-perfusion of L-NAME (0.1 mM, pf) with FD4 solution.

For the compound `COC(=O)[C@@H](N)CCCNC(=N)N[N+](=O)[O-]` [L-NAME, Nω-nitro-L-arginine methyl ester], the “TDG-induced inhibitory effect on PV FD4 levels” value is “reversed” and the “Arterial FD4 levels in LPS 6 hr + TDG 6 hr rats” value is “reduced”. Also, the “LPS-induced increases in PV FD4 levels at 6 hr” value (L-NAME 0.1 mM alone co-perfused with FD4, no TDG) is reported as “no effect”.

With `CC[C@H](C)[C@H](NC(=O)[C@H](Cc1ccccc1)NC(=O)[C@H](CC(=O)O)NC(=O)[C@H](CCCNC(=N)N)NC(=O)[C@H](C)NC(=O)[C@H](C)NC(=O)[C@H](CC(C)C)NC(=O)[C@H](CC(N)=O)NC(=O)[C@H](CC(=O)O)NC(=O)[C@H](CC(C)C)NC(=O)[C@@H](NC(=O)[C@@H](NC(=O)[C@H](CC(N)=O)NC(=O)[C@H](CCSC)NC(=O)[C@H](CCC(=O)O)NC(=O)[C@H](CC(=O)O)NC(=O)[C@H](CO)NC(=O)[C@H](Cc1ccccc1)NC(=O)[C@H](CO)NC(=O)CNC(=O)[C@H](CC(=O)O)NC(=O)CNC(=O)[C@@H](N)Cc1c[nH]cn1)[C@@H](C)O)[C@@H](C)CC)C(=O)N[C@@H](CC(N)=O)C(=O)N[C@@H](Cc1c[nH]c2ccccc12)C(=O)N[C@@H](CC(C)C)C(=O)N[C@H](C(=O)N[C@@H](CCC(N)=O)C(=O)N[C@H](C(=O)N[C@@H](CCCCN)C(=O)N[C@H](C(=O)N[C@H](C(=O)N[C@@H](CC(=O)O)C(=O)O)[C@@H](C)O)[C@@H](C)CC)[C@@H](C)O)[C@@H](C)CC` [TDG], the “PV FD4 levels” value is, setting by setting: (LPS 6 hr model, TDG 50 μg/kg ip 3 hr after LPS) “reduced”; (LPS 6 hr model, TDG 50 μg/kg iv 6 hr after LPS (t=0 min)) “reduced”; (LPS 24 hr model, TDG 50 μg/kg ip 0 hr after LPS) “little effect”; (LPS 24 hr model, TDG 50 μg/kg ip 6 hr after LPS) “reduced”; (LPS 24 hr model, TDG 50 μg/kg ip 12 hr after LPS) “reduced”; (LPS 24 hr model, TDG 50 μg/kg iv 24 hr after LPS) “little effect”. In addition, the “arterial FD4 levels” value is reported as “no significant effect” (LPS 24 hr model, TDG 0 hr after LPS); “inhibited” (LPS 24 hr model, TDG 6 hr after LPS); “inhibited” (LPS 24 hr model, TDG 12 hr after LPS); “no significant effect” (LPS 24 hr model, TDG 24 hr after LPS).

On to “[Ac-His^1, D-Phe^2, Lys^15, Arg^16, Leu^27]-VIP(1-7)-GRF(8-27) (HFDAVFTNSYRKVLKRLSARKLLQDIL; HELM PEPTIDE1{[ac].H.[dF].D.A.V.F.T.N.S.Y.R.K.V.L.K.R.L.S.A.R.K.L.L.Q.D.I.L.[am]}$$$$V2.0; SMILES CC[C@H](C)[C@H](NC(=O)[C@H](CC(=O)O)NC(=O)[C@H](CCC(N)=O)NC(=O)[C@H](CC(C)C)NC(=O)[C@H](CC(C)C)NC(=O)[C@H](CCCCN)NC(=O)[C@H](CCCNC(=N)N)NC(=O)[C@H](C)NC(=O)[C@H](CO)NC(=O)[C@H](CC(C)C)NC(=O)[C@H](CCCNC(=N)N)NC(=O)[C@H](CCCCN)NC(=O)[C@H](CC(C)C)NC(=O)[C@@H](NC(=O)[C@H](CCCCN)NC(=O)[C@H](CCCNC(=N)N)NC(=O)[C@H](Cc1ccc(O)cc1)NC(=O)[C@H](CO)NC(=O)[C@H](CC(N)=O)NC(=O)[C@@H](NC(=O)[C@H](Cc1ccccc1)NC(=O)[C@@H](NC(=O)[C@H](C)NC(=O)[C@H](CC(=O)O)NC(=O)[C@@H](Cc1ccccc1)NC(=O)[C@H](Cc1c[nH]cn1)NC(C)=O)C(C)C)[C@@H](C)O)C(C)C)C(=O)N[C@@H](CC(C)C)C(N)=O) [PG97-269]”, for which the “TDG-induced inhibitory effect on PV FD4 levels” value is “reversed” and the “Arterial FD4 levels in LPS 6 hr + TDG 6 hr rats” value is “reduced”.
